Activity calls are given as the source filed them. No cut-off for these calls is given here.
Tests used:
[1] = Toxicity in Balb/c nude mouse xenografted with human MCF7 cells assessed as effect on kidney morphology at 2 to 4 mg/kg, ip administered every other day for 20 days by H&E staining based analysis; assay type: organism-based; conditions: in vivo, 480 h, dose 2-4 mg/kg, time 20 day
[2] = target: T1, Estrogen receptor (Homo sapiens) (UniProt P03372); assay: Induction of ERalpha degradation in human MCF7 cells incubated for 6 to 24 hrs by Western blot analysis; assay type: cell-based; conditions: dose 0.5-5 µM, time 6-24 hrs
T1 sequence (whole entry): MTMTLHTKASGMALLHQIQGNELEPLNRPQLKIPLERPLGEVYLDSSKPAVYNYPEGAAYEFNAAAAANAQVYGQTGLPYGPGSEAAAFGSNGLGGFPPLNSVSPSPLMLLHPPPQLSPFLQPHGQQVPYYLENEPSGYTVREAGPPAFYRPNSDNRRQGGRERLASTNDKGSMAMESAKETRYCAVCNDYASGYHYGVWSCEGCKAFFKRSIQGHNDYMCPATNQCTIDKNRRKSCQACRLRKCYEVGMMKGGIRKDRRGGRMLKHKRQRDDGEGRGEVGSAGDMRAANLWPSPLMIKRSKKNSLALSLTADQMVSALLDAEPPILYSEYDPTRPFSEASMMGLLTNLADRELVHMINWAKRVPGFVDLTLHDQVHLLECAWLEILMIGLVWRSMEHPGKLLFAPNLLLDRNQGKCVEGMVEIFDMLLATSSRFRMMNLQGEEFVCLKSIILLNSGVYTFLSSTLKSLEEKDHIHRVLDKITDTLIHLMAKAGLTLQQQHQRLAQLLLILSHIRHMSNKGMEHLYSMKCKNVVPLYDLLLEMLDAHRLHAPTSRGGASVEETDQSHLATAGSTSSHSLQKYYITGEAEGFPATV

[3] = target: T1, Estrogen receptor (Homo sapiens); assay: Induction of ERalpha degradation in human Tamoxifen-resistant LCC2 cells at 0.5 uM incubated for 6 to 24 hrs by Western blot analysis; assay type: cell-based; conditions: Tamoxifen-resistant LCC2 cell, time 6-24 hrs
[4] = target: T1, Estrogen receptor (Homo sapiens); assay: Induction of ERalpha degradation in human MCF7 cells at 5 uM incubated for 24 hrs by Western blot analysis relative to SeCN-OBHSA derivatives; assay type: cell-based
[5] = target: T1, Estrogen receptor (Homo sapiens); assay: Induction of ERalpha degradation in human MCF7 cells at 5 uM incubated for 24 hrs in the presence of MG-132 by Western blot analysis; assay type: cell-based
[6] = tested on: Estrogen receptor (Homo sapiens), P03372 [D538G]; assay: Induction of ERalpha degradation in human T47D cells harboring ERalpha D538G mutant at 0.5 to 5 uM incubated for 24 hrs by Western blot analysis; assay type: cell-based; conditions: dose 0.5-5 µM
Tubulin (Homo sapiens) [7] = target: T2, Tubulin (Homo sapiens) (UniProt P68371+Q9H4B7+P0DPH7+P68366+Q13509+Q71U36+P04350+Q3ZCM7+P07437+P68363+Q9BQE3+Q6PEY2+Q13885+Q9BVA1+Q9BUF5); assay: Inhibition of tubulin polymerization (unknown origin) at 30 uM incubated for 60 mins by microplate reader analysis; assay type: protein-complex assay
[8] = Antiproliferative activity against human Tamoxifen-resistant LCC2 cells assessed as inhibition of cell proliferation incubated for 72 hrs by CCK8 assay; assay type: functional, cell-based
Mus musculus [9] = assay: In vivo induction of ERalpha degradation in BALB/c nude mouse xenografted with human tamoxifen-resistant LCC2 cells assessed as decrease in ERalpha expression in tumor at 2 mg/kg, ip administered every other day for 20 days by Western blot analysis; assay type: functional, organism-based; conditions: time 20.0 day
Mus musculus [10] = assay: In vivo induction of ERalpha degradation in BALB/c nude mouse xenografted with human MCF7 cells assessed as decrease in ERalpha expression in tumor at 2 to 4 mg/kg, ip administered every other day for 20 days by Western blot analysis; assay type: functional, organism-based; conditions: dose 2-4 mg/kg, time 20.0 day
MCF7 [11] = assay: Antitumor activity against human MCF7 cells xenografted in Balb/c nude mouse assessed as tumor growth inhibition at 4 mg/kg, ip administered every other day for 20 days relative to control; assay type: functional; conditions: MCF7, 480 h, time 20 day, read-out: TGI
Tubulin (Homo sapiens) [12] = target: T2, Tubulin (Homo sapiens); assay: Disruption of microtubule network in human MCF7 cells assessed as ruptured microtubule network at 2 uM incubated for 48 hrs by DAPI staining based confocal laser scanning microscopic analysis; assay type: cell-based
MDA-MB-231 = assay: Antiproliferative activity against ERalpha negative human MDA-MB-231 cells assessed as inhibition of cell proliferation incubated for 72 hrs by CCK8 assay; assay type: functional, cell-based; conditions: MDA-MB-231, 72 h
[13] = Selectivity index, ratio of IC50 for cytotoxicity against human MCF-10A cells to IC50 for antiproliferative activity against human MCF7 cells; assay type: toxicity, cell-based; conditions: MCF-10A cells and MCF7 cells, read-out: Ratio IC50
Tubulin (Homo sapiens) [14] = target: T2, Tubulin (Homo sapiens); assay: Disruption of microtubule network in human LCC2 cells assessed as chaotic microtubule network at 4 uM incubated for 48 hrs by DAPI staining based confocal laser scanning microscopic analysis; assay type: cell-based
[15] = target: Estrogen receptor beta (Homo sapiens) (UniProt Q92731); assay: Binding affinity to human ERbeta assessed as relative binding affinity incubated under vibration for 1 min followed by 2 hrs incubation under dark condition by fluorescence polarization assay relative to estradiol; conditions: time 121.0 min
T47D [16] = assay: Antiproliferative activity against human T47D cells harboring ERalpha Y537S mutant assessed as inhibition of cell proliferation incubated for 72 hrs by CCK8 assay; assay type: functional, cell-based
[17] = target: T1, Estrogen receptor (Homo sapiens); assay: Induction of ERalpha degradation in human MCF7 cells at 1 uM incubated for 6 to 24 hrs by Western blot analysis; assay type: cell-based; conditions: time 6-24 hrs
[18] = target: T1, Estrogen receptor (Homo sapiens); assay: Induction of ERalpha degradation in human MCF7 cells at 5 uM incubated for 24 hrs by Western blot analysis; assay type: cell-based
Tubulin (Homo sapiens) [19] = target: T2, Tubulin (Homo sapiens); assay: Disruption of microtubule network in human MCF7 cells assessed as chaotic microtubule network at 2 uM incubated for 48 hrs by DAPI staining based confocal laser scanning microscopic analysis; assay type: cell-based
Tubulin (Homo sapiens) [20] = target: T2, Tubulin (Homo sapiens); assay: Disruption of microtubule network in human LCC2 cells assessed as ruptured microtubule network at 4 uM incubated for 48 hrs by DAPI staining based confocal laser scanning microscopic analysis; assay type: cell-based
[21] = tested on: Tamoxifen-resistant LCC2 cell; assay: Antitumor activity against human Tamoxifen-resistant LCC2 cells xenografted in Balb/c nude mouse assessed as reduction in Ki67 positive cells at 2 mg/kg, ip administered every other day for 20 days by immunohistochemistry analysis; assay type: functional, organism-based; conditions: time 20.0 day
MCF7 [22] = assay: Antitumor activity against human MCF7 cells xenografted in Balb/c nude mouse assessed as tumor growth inhibition at 2 mg/kg, ip administered every other day for 20 days relative to control; assay type: functional; conditions: MCF7, 480 h, time 20 day, read-out: TGI
T47D [23] = assay: Antiproliferative activity against ERalpha positive human T47D cells assessed as inhibition of cell proliferation incubated for 72 hrs by CCK8 assay; assay type: functional, cell-based
Homo sapiens = organism: Homo sapiens; assay: Selectivity ratio of relative binding affinity for human ERalpha to relative binding affinity to human ERbeta
MCF7 [24] = assay: Antitumor activity against human MCF7 cells xenografted in Balb/c nude mouse assessed as reduction in Ki67 positive cells at 2 to 4 mg/kg, ip administered every other day for 20 days by immunohistochemistry analysis; assay type: functional, organism-based; conditions: dose 2-4 mg/kg, time 20.0 day
[25] = Antitumor activity against human Tamoxifen-resistant LCC2 cells xenografted in Balb/c nude mouse assessed as tumor growth inhibition at 2 mg/kg, ip administered every other day for 20 days relative to control; assay type: functional; conditions: Tamoxifen-resistant LCC2 cell, 480 h, time 20 day, read-out: TGI
[26] = Toxicity in Balb/c nude mouse xenografted with human MCF7 cells assessed as body weight loss at 2 to 4 mg/kg, ip administered every other day for 20 days; assay type: organism-based; conditions: in vivo, 480 h, dose 2-4 mg/kg, time 20 day
[27] = target: T1, Estrogen receptor (Homo sapiens); assay: Binding affinity to human ERalpha assessed as relative binding affinity incubated under vibration for 1 min followed by 2 hrs incubation under dark condition by fluorescence polarization assay relative to estradiol; conditions: time 121.0 min
[28] = tested on: Estrogen receptor (Homo sapiens), P03372 [Y537S]; assay: Induction of ERalpha degradation in human T47D cells harboring ERalpha Y537S mutant at 0.5 to 5 uM incubated for 24 hrs by Western blot analysis; assay type: cell-based; conditions: dose 0.5-5 µM
MCF7 [29] = assay: Antiproliferative activity against ERalpha positive human MCF7 cells assessed as inhibition of cell proliferation incubated for 72 hrs by CCK8 assay; assay type: functional, cell-based; conditions: MCF7, 72 h
[30] = Toxicity in Balb/c nude mouse xenografted with human MCF7 cells assessed as effect on liver morphology at 2 to 4 mg/kg, ip administered every other day for 20 days by H&E staining based analysis; assay type: organism-based; conditions: in vivo, 480 h, dose 2-4 mg/kg, time 20 day
T47D [31] = assay: Antiproliferative activity against human T47D cells harboring ERalpha D538G mutant assessed as inhibition of cell proliferation incubated for 72 hrs by CCK8 assay; assay type: functional, cell-based
[32] = Toxicity in Balb/c nude mouse xenografted with human MCF7 cells assessed as effect on heart morphology at 2 to 4 mg/kg, ip administered every other day for 20 days by H&E staining based analysis; assay type: organism-based; conditions: in vivo, 480 h, dose 2-4 mg/kg, time 20 day
[33] = Cytotoxicity against human MCF-10A cells assessed as inhibition of cell proliferation incubated for 72 hrs by CCK8 assay; assay type: toxicity, cell-based

Estrogen receptor beta (Homo sapiens), sequence (Q92731 whole entry): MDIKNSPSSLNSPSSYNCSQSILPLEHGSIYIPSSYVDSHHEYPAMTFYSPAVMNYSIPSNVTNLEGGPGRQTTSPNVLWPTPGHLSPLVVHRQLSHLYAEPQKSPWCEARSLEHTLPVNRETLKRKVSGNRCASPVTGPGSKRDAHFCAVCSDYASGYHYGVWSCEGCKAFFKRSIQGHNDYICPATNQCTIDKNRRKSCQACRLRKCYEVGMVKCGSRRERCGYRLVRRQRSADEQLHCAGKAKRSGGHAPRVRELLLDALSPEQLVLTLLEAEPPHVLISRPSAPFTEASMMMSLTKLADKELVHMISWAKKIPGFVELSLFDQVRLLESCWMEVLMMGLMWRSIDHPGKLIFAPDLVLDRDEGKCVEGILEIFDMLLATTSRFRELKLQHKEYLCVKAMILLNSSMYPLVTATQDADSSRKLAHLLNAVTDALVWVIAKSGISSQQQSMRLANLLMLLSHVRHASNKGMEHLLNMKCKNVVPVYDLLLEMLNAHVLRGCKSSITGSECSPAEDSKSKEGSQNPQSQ
Estrogen receptor (Homo sapiens), P03372 [D538G], sequence (P03372 whole entry D538G): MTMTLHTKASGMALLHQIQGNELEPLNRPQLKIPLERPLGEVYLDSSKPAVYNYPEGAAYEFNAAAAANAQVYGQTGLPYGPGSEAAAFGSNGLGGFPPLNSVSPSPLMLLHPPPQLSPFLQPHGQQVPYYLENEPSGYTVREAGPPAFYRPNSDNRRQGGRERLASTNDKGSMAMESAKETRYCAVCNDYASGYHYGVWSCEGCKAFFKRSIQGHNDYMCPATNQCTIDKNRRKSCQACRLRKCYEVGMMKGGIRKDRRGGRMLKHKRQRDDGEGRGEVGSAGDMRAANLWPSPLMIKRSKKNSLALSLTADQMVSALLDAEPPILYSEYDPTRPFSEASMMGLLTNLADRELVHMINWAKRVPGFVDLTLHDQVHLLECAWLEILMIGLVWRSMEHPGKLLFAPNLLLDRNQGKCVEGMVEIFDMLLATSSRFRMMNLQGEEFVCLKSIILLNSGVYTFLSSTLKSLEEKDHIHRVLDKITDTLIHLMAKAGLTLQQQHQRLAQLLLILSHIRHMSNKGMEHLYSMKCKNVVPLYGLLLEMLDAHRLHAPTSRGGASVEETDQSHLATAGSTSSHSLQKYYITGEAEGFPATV
Estrogen receptor (Homo sapiens), P03372 [Y537S], sequence (P03372 whole entry Y537S): as the sequence (P03372 whole entry D538G) above, with Y537S, G538D counted along it

| SMILES | tubulin polymerization inhibition (active/not active) (Tubulin (Homo sapiens) [7]) | IC50 [8] [µM] | IC50 (MDA-MB-231) [µM] | selectivity ratio [13] | RBA [15] [%] | IC50 (T47D [16]) [µM] | Activity [18] | inhibition in vivo at 2 mg/kg (MCF7 [22]) [%] | IC50 (T47D [23]) [µM] | Selectivity ratio (Homo sapiens) | inhibition in vivo at 2 mg/kg [25] [%] | RBA [27] [%] | IC50 (MCF7 [29]) [µM] | IC50 (T47D [31]) [µM] | IC50 at 72 h [33] [µM] | also measured |
| --- | --- | --- | --- | --- | --- | --- | --- | --- | --- | --- | --- | --- | --- | --- | --- | --- |
| CCN(c1ccccc1F)S(=O)(=O)C1CC2OC1C(c1ccc(NC(=O)CCCCC[Se]C#N)cc1)=C2c1ccc(O)cc1 (centres undefined) | Active | 2.81 | 3.7 | 203 | 0.46 | 1.44 | Active | 69.1 | 2.82 | 15.8 | 56.9 | 7.26 | 0.09 | 3 | 18.3 | Activity [1]: Non-Toxic; Activity [2]: Dose-Dependent Effect; Activity [3]: 100%; Activity [4]: Active; Activity [5]: inactive; Activity [6]: Active; Activity (Mus musculus [9]): Active; Activity (Mus musculus [10]): Active; inhibition in vivo at 4 mg/kg (MCF7 [11]): 79.3%; Activity (Tubulin (Homo sapiens) [12]): Active; Activity (Tubulin (Homo sapiens) [14]): Active; Activity [17]: Active; Activity (Tubulin (Homo sapiens) [19]): Active; Activity (Tubulin (Homo sapiens) [20]): Active; Activity [21]: Active; Activity (MCF7 [24]): Active; Activity [26]: Non-Toxic; Activity [28]: Active; Activity [30]: Non-Toxic; Activity [32]: Non-Toxic |
| N#C[Se]CCCCCC(=O)Nc1ccccc1 | Active |  | 0.36 | 0.64 | 0.01 |  | inactive |  | 4.28 | 7 |  | 0.04 | 3.54 |  | 2.26 |  |
| C[C@]12CC[C@@H]3c4ccc(O)cc4C[C@@H](CCCCCCCCC[S+]([O-])CCCC(F)(F)C(F)(F)F)[C@H]3[C@@H]1CC[C@@H]2O (some centres undefined) [FULVESTRANT] |  |  | > 100 |  |  |  |  | 64.1 |  |  | 45.8 |  | 0.12 |  | > 100 |  |
| CC/C(=C(\c1ccc(O)cc1)c1ccc(OCCN(C)C)cc1)c1ccccc1 [AFIMOXIFENE] |  | 20.9 | 17.2 |  |  | 8.9 |  |  |  |  |  |  |  | 9.13 |  |  |
